Measured values as given in US4999374A, “Veterinary treatment” (priority 1987, dated 1991).
In brackets after ≈: the same amount, converted by molar mass. Where two headings read alike, the source gives them in different places.

How the values were obtained:
T. hyodysenteriae (P18a) [1] = experiment: Efficacy of M139603 in pigs at low doses (Example 7, Table 7); format: in vivo; parameters: Group weight / Ave. daily weight-gain: unit not given here; settings: for Mortality (+ culls): 42 days, 6 pigs
Method: (§1) In this studY two groups (Gp.1 and Gp.2) of pigs, six per group, were experimentally infected with a pathogenic strain of T. hyodysenteriae (P18a, IRAD(Institute for Animal Health), Compton, Berks, U.K.) by oro-gastric inoculation of 50 ml of a culture suspension (1×10^7cfu/ml) of the organism into each animal. From post-infection day (PID) to PID 35 the animals in Gp. 1 were offered ad lib a feed comprising "Kwikwean" meal (Rank, Hovis, McDougall Research Ltd; containing no antibiotics) incorporated with M139603 at 25 ppm. Gp.2 remained on unmedicated feed throughout the trial. Drug efficacy was measured primarily on the basis of the number of diarrhoea or dysentery days in relation to pig-days within a group and on the average daily weight gain per pig, in each group over the period of the trial. The daily gain was calculated by dividing group gain at end of trial (PID 35) by the total number of pig-days from PID 1 to PID 35. […] In the experiment the pigs were exposed to high infective doses of the organism a day before the introduction of the drug. Under normal circumstances preventive dose-regimes are applied on animals at risk and not on those already infected.
(§2) In this study, eighteen pigs were allocated to three equal groups (Gp.1-3). Feed incorporated with the drug at 25 or 15 ppm was offered to Gp.1 and 2, respectively, on thirty-eight consecutive days commencing six hours pre-infection. Gp.3 remained on unmedicated feed throughout the trial. The pigs were infected with T. hyodysenteriae (strain "P18a") using methods and materials similar to those applied in Example 5. However, seven days following this exposure (post-infection day 7), over a period of seven consecutive days, the pigs in Gp. 1 and 2 were allowed to co-mingle for about two hours each day with some dysenteric "seeder pigs" in a nearby pen. Drug efficacy, as in Example 6, was assessed primarily on the basis of the total number of diarrhoea/dysentery days per group and on the basis of average daily weight gain per pig per group. The results are indicative of the good efficacy of M139603 even at a level as low as 15 ppm feed in preventing swine dysentery. At this dose-level, the daily drug-intake is unlikely to be more than 0.9 mg/kg/body-weight, if daily feed is calculated at 6% of a pig's body-weight.
In this experiment twenty-four pigs were split into four equal groups (Gp. 1-4). Gp. 1 and 2 were offered the drug at 15 or 10 ppm feed on forty-two consecutive days, commencing six hours pre-infection. Gp. 3 (infected) and Gp. 4 (uninfected) remained on unmedicated feed throughout. The infection procedures with T. hyodysenteriae (P18a) were similar to those applied above. Only three groups, Gp. 1, 2 and 3 were infected. Gp. 4 remained uninfected in a well-isolated pen throughout the trial period. Three days following the initial exposure to the infection (post-infection day 3), over a period of five continuous days, the pigs in Gp. 1, 2 and 3 were allowed to co-mingle with dysenteric "seeder pigs" housed in a separate pen. Drug efficacy was measured using the criteria applied in the Examples 5 and 6. […] Thereafter, the differences narrowed, primarily due to the placement of Gp. 3 on tiamulin to prevent further weight losses, and consequent deaths. Despite the number of diarrhoea days observed for Gp. 1 (6.8%) and Gp.

[2] = system: T. hyodysenteriae (strain "P18a"); experiment: Efficacy of M139603 in pigs, natural infection (Example 6, Table 6); format: in vivo; settings: for Mortality (+ culls): 38 days, 6 pigs; for Number diarrhoea/dysentery days / Percent diarrhoea/dysentery days: pi 1 to 38; for Average weight at end: start 10.95 kg
Method: as §1, §2

[3] = system: T. hyodysenteriae strain "P18a"; experiment: Agar-dilution M.I.C. test of M139603 and analogues (Example 8, Table 8); format: cell-based, Treponema hyodysenteriae; settings: Brachyspira hyodysenteriae, Isosensitest agar with 5% sheep-blood, anaerobic, 39° C., 48-72 hours
Method: T. hyodysenteriae strain "P18a" was used in both in vitro and in vivo tests as above.
Minimum inhibitory concentration test: An agar-dilution M.I.C. test procedure was applied in the study. The susceptibility of the bacterial strain was tested against a range of dilutions (0.3 mg; 0.1 mg; 0.03 mg; 0.01 mg and 0.003 mg/l medium) of each compound incorporated in plates of Isosensitest agar (Oxoid CM471) with 5% added sheep-blood. The plates, `spot-inoculated` (Steer's type multipoint inoculator) with a standard culture-suspension of the test strain, were incubated anaerobically at 39° C. for 48-72 hours before reading the results. The M.I.C. of each compound was read as the lowest concentration yielding no growth (no haemolysis) or a hazy growth (faint haemolysis) on the site of the spot-inoculation.

T. hyodysenteriae = experiment: MIC of M139603 against thirteen T. hyodysenteriae isolates vs salinomycin and dimetridazole (Example 1, Table 1); format: cell-based, Treponema hyodysenteriae; settings: for MIC: Brachyspira hyodysenteriae
Method: The minimum inhibitory concentration of M139603 was tested in parallel with dimetridazole (May & Baker) and the growth-promoting polyether antibiotic salinomycin (Hoechst) against thirteen strains of T. hyodysenteriae.

T. hyodysenteriae (P18a) [4] = experiment: Efficacy of M139603 in preventing swine dysentery in pigs, experimental infection (Example 5, Table 5); format: in vivo; settings: 25 ppm feed
Method: The efficacy of M139603 was tested at 25 ppm feed.
as §1

CO[C@@H](C)[C@H]1C[C@H](C)[C@H]([C@@H](C)/C=C/[C@@H]2CC[C@@H](C)[C@H](/C(=C/[C@H]3CCC[C@@H](C)[C@@H]3[C@H](C)C(=O)C3=C(O)COC3=O)CO)O2)O1 [Analogue M139603, tetronasin]
Ave. daily weight-gain (T. hyodysenteriae (P18a) [1]; 10 ppm feed group, post-infection day 44 to 57, inclusive (after withdrawal)): 0.65 | Mortality (+ culls) (T. hyodysenteriae (P18a) [1]; 10 ppm feed): 0 | Ave. daily weight-gain (T. hyodysenteriae (P18a) [1]; 10 ppm feed, day 4 pre-infection to day 22 post-infection): 0.59 | Percent diarrhoea/dysentery days (T. hyodysenteriae (P18a) [1]; 10 ppm feed, post-infection day 1 to 21): 4.8% | No. diarrhoea/dysentery days (T. hyodysenteriae (P18a) [1]; 10 ppm feed, post-infection day 1 to 21 (126 pig-days)): 6 days | Percent diarrhoea/dysentery days (T. hyodysenteriae (P18a) [1]; 10 ppm feed, post-infection day 1 to 42): 11.9% | No. diarrhoea/dysentery days (T. hyodysenteriae (P18a) [1]; 10 ppm feed, post-infection day 1 to 42 (252 pig-days)): 30 days | Group weight (T. hyodysenteriae (P18a) [1]; 10 ppm feed, post-infection day 21, start 66.0): 161.0 | Ave. daily weight-gain (T. hyodysenteriae (P18a) [1]; 10 ppm feed, post-infection day 23 to 43, inclusive): 0.83 | Group weight (T. hyodysenteriae (P18a) [1]; 10 ppm feed, post-infection day 43 (1 day from withdrawal of medication)): 265.0 | Average daily weight-gain vs uninfected, unmedicated group (T. hyodysenteriae (P18a) [1]; 15 or 10 ppm feed): exceeded that recorded for pigs in the uninfected, unmedicated group | Weight gain vs unmedicated, infected group (T. hyodysenteriae (P18a) [1]; 15 or 10 ppm feed, by post-infection day 21): Significant weight gain differences | Ave. daily weight-gain (T. hyodysenteriae (P18a) [1]; 15 ppm feed group, post-infection day 44 to 57, inclusive (after withdrawal)): 0.86 | Mortality (+ culls) (T. hyodysenteriae (P18a) [1]; 15 ppm feed): 0 | Ave. daily weight-gain (T. hyodysenteriae (P18a) [1]; 15 ppm feed, day 4 pre-infection to day 22 post-infection): 0.56 | Percent diarrhoea/dysentery days (T. hyodysenteriae (P18a) [1]; 15 ppm feed, post-infection day 1 to 21): 4% | No. diarrhoea/dysentery days (T. hyodysenteriae (P18a) [1]; 15 ppm feed, post-infection day 1 to 21 (126 pig-days)): 5 days | Percent diarrhoea/dysentery days (T. hyodysenteriae (P18a) [1]; 15 ppm feed, post-infection day 1 to 42): 6.8% | No. diarrhoea/dysentery days (T. hyodysenteriae (P18a) [1]; 15 ppm feed, post-infection day 1 to 42 (252 pig-days)): 17 days | Group weight (T. hyodysenteriae (P18a) [1]; 15 ppm feed, post-infection day 21, start 63.7): 153.7 | Ave. daily weight-gain (T. hyodysenteriae (P18a) [1]; 15 ppm feed, post-infection day 23 to 43, inclusive): 0.81 | Group weight (T. hyodysenteriae (P18a) [1]; 15 ppm feed, post-infection day 43 (1 day from withdrawal of medication)): 225.5 | Group weight (T. hyodysenteriae (P18a) [1]; 15 ppm feed, post-infection day 57 (15 days from withdrawal of medication)): 327.5 | Feed level found to be effective (lowest) (T. hyodysenteriae (P18a) [1]; in the feed): 10 ppm | Average daily weight-gain ([2]; 15 ppm feed): 0.72 kg | Efficacy in preventing swine dysentery ([2]; 15 ppm feed): good efficacy | Mortality (+ culls) ([2]; 15 ppm feed): 0 | Number diarrhoea/dysentery days ([2]; 15 ppm feed): 0 days | Percent diarrhoea/dysentery days ([2]; 15 ppm feed): 0% | Average weight at end ([2]; 15 ppm feed): 41.0 kg | Group weight at end ([2]; 15 ppm feed, start 65.5 kg): 246.5 kg | Animals developing a transient dysentery ([2]; 25 ppm feed): one of the six animals | Average daily weight-gain ([2]; 25 ppm feed): 0.72 kg | Mortality (+ culls) ([2]; 25 ppm feed): 0 | Number diarrhoea/dysentery days ([2]; 25 ppm feed): 14 days | Percent diarrhoea/dysentery days ([2]; 25 ppm feed): 6.1% | Average weight at end ([2]; 25 ppm feed): 41.0 kg | Group weight at end ([2]; 25 ppm feed, start 65.7 kg): 246.5 kg | MIC [3]: 0.01 µg/mL (≈ 0.0166 µM) | MIC (T. hyodysenteriae; isolate B78, read-out: MIC): 0.5 µg/mL | MIC (T. hyodysenteriae; isolate S82/6, read-out: MIC): 0.2 µg/mL | MIC (T. hyodysenteriae; isolate S82/7, read-out: MIC): 0.2 µg/mL | MIC (T. hyodysenteriae; isolate S83/1, read-out: MIC): < 0.1 µg/mL | MIC (T. hyodysenteriae; isolate S83/2, read-out: MIC): 0.5 µg/mL | MIC (T. hyodysenteriae; isolate S83/5, read-out: MIC): < 0.1 µg/mL | MIC (T. hyodysenteriae; isolate S85/1, read-out: MIC): 0.2 µg/mL | MIC (T. hyodysenteriae; isolate S85/2, read-out: MIC): 0.2 µg/mL | MIC (T. hyodysenteriae; isolate S85/3, read-out: MIC): 0.2 µg/mL | MIC (T. hyodysenteriae; isolate S85/8, read-out: MIC): 0.2 µg/mL | MIC (T. hyodysenteriae; isolate S85/9, read-out: MIC): < 0.1 µg/mL | MIC (T. hyodysenteriae; isolate S86/1, read-out: MIC): < 0.1 µg/mL | MIC (T. hyodysenteriae; isolate S86/2, read-out: MIC): 0.2 µg/mL | MIC (T. hyodysenteriae; mean of 13 strains (table), read-out: Mean MIC): 0.215 µg/mL | MIC compared with salinomycin (statistical analysis) (T. hyodysenteriae; thirteen strains): significantly (p<0.001) lower MIC | Efficacy in preventing swine dysentery (T. hyodysenteriae (P18a) [4]): preventing or minimising the incidence of swine dysentery | Mortality (+ culls) (T. hyodysenteriae (P18a) [4]; 35 days, 6 pigs): 0 | Average daily weight-gain (T. hyodysenteriae (P18a) [4]; PID 1-35): 0.62 kg | Number diarrhoea/dysentery days (T. hyodysenteriae (P18a) [4]; PID 1-35): 27 days | Percent diarrhoea/dysentery days (T. hyodysenteriae (P18a) [4]; PID 1-35): 12.9% | Average weight at termination (T. hyodysenteriae (P18a) [4]; start 18.8): 40.5 | Group weight at termination (T. hyodysenteriae (P18a) [4]; start 112 kg): 243 kg
